One experiment deals with wild type CHO cells. Briefly: [3H]adenine competition binding on wild type CHO membranes. The conditions noted are these: 15 nM [3H]adenine. As to the method: The membranes were prepared as total particulate fractions. […] The culturing medium was removed and the cells were washed twice with ice cold phosphate buffered saline (PBS without Ca^2+ and Mg^2+), scraped from the plates in 50 mM Tris-HCl buffer, pH 7.4, and collected by centrifugation (10 minutes at 16,000 RPM at 4° C.). The cell pellet was re-suspended in hypotonic 5 mM Tris-HCl buffer, pH 7.4, and homogenized with an Ultra Turrax homogenizer (Janker Kunkel, Germany). The homogenate was centrifuged at 18,000 RPM for 20 minutes at 4° C. The final pellet was re-suspended in 50 mM Tris-HCl buffer, pH 7.4 and stored in aliquots at −70° C. A protein determination was performed using the Bradford protein assay (Biorad, Germany) using bovine serum albumin (BSA) as standard.
(§1) Membranes were thawed on ice and diluted in 50 mM HEPES buffer, pH 7.4 supplemented with 10 mM MgCl2 and 1 mM EGTA. […] Both assays were carried out in a final volume of 500 μl, using 18 μg of membrane protein for the transfected CHO cells and 30 μg of membrane protein for the wild type CHO cells for the saturation binding. For competition binding experiments, 15 and 50 μg of membrane protein was used for the transfected and wild type cells, respectively. The reaction was terminated by rapid filtration through Whatman GF/B filters using a Brandel multi-channel cell harvester (96 wells). The filters were washed three times with 3 ml ice cold 50 mM HEPES buffer, pH 7.4, transferred to liquid scintillation vials and 3 ml of scintillation fluid (Ultima Gold MV, Packard, Netherlands) was added. Samples were counted in a β-scintillation counter after at least 6 hours to permit the glass fiber filters to become uniformly translucent.

The target in experiment [1] is T1, adenine binding rat receptor (Rattus norvegicus, UniProt Q7TN49).
T1 construct: expressed in transfected cells; host or cells: CHO cells, transient, lipofectamine PLUS
T1 sequence (Q7TN49 1-304): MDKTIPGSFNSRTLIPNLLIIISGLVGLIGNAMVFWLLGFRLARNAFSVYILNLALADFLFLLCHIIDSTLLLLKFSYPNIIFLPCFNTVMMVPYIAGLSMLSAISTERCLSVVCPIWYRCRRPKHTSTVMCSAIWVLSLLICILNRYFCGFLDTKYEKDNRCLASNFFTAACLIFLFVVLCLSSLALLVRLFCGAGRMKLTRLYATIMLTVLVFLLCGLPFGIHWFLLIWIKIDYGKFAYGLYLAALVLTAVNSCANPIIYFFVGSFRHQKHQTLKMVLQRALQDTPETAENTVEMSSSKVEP
The experiment in a line: [35S]GTPγS binding on CHO membranes transiently transfected. The class given is biochemical. The note with it: for % stim.: increase above basal. The procedure:
a) Methods—Determination of [^35S ]GTPγS binding to the G-proteins was carried out according to a modified procedure of Lazareno (Methods Mol. Biol., 83:107-116, 1997). These experiments were performed for a first functional evaluation of the receptor on the level of a membrane preparation.
The assay mixture contained 10 and 35 μg of membrane protein for the transfected and wild type CHO cells, respectively.
For testing agonistic activity, 175 μl of diluted membranes was pre-incubated in the buffer described above together with 25 μl of buffer and 25 μl of varying concentrations of the compound in a total volume of 225 μl. After a 20 minute pre-incubation period at 30° C., 25 μl of [^35S]GTPγS was added to a final concentration of 0.25 nM and the assay mixtures were further incubated for 20 minutes at 30° C. Bound and free [^35S]GTPγS were separated by rapid filtration over an UniFilter™-96, GF/B™ under reduced pressure using Filtermate 196 filtration (Packard Company (Netherlands). The amount of bound radioactivity on the filter unit was determined after drying of the filters and scintillant addition (Microscint-O; Packard Company) by liquid scintillation counting.
Basal [^35S]GTPγS binding was measured in absence of compounds. Stimulation by agonist was calculated as the percentage increase above basal levels. The sigmoid agonist concentration-response curves were analyzed by non-linear regression using the GraphPad Prism program. The different concentration points were run in duplicates and the reported data were retrieved from independent experiments.

Experiment [2] addresses T1, adenine binding rat receptor. Briefly: [3H]adenine competition binding on CHO membranes transiently transfected. The note with it: transfected cells, 15 nM [3H]adenine. As to the method: The membranes were prepared as total particulate fractions. The cell lines were cultured to […] on 145 mm petri dishes and treated with 5 mM sodium butyrate, 24 hours before collection. The culturing medium was removed and the cells were washed twice with ice cold phosphate buffered saline (PBS without Ca^2+ and Mg^2+), scraped from the plates in 50 mM Tris-HCl buffer, pH 7.4, and collected by centrifugation (10 minutes at 16,000 RPM at 4° C.). The cell pellet was re-suspended in hypotonic 5 mM Tris-HCl buffer, pH 7.4, and homogenized with an Ultra Turrax homogenizer (Janker Kunkel, Germany). The homogenate was centrifuged at 18,000 RPM for 20 minutes at 4° C. The final pellet was re-suspended in 50 mM Tris-HCl buffer, pH 7.4 and stored in aliquots at −70° C. A protein determination was performed using the Bradford protein assay (Biorad, Germany) using bovine serum albumin (BSA) as standard.
as §1, with “A) Methods—[3H]Adenine binding experiments were performed to characterize wild type cell lines before transfection as well as transiently and permanently transfected cell lines. Membranes” for “Membranes”

Setting [3] is: transiently transfected CHO membranes.
Setting [4] is: transiently transfected cells, mean of n experiments.
Where [5] appears, read: transiently transfected cells, single experiments.
Setting [6] is: transiently transfected cells, single experiments, read-out: pEC50 (converted).

Each structure is given as a SMILES string. “And” between values parts separate entries of the source, which are not always exact repeats. Equal values may be shown once. Read-outs that look alike come from different tables or passages of the source.

These results are taken from patent US20030157516A1, “G protein coupled receptor” (priority 2000, published 2003).

`Nc1ncnc2c1ncn2[C@@H]1O[C@H](COP(=O)(O)O)[C@@H](O)[C@H]1O` [AMP]: the pIC50 (commonly the IC50 on a negative log10 scale, so that one unit is a factor of ten) with wild type CHO cells (mean of n experiments) is under 4; in the experiment on wild type CHO cells (single experiments), under 4; in experiment [2] (mean of n experiments), 4.41; in experiment [2] (single experiments), 4.29 and 4.47 and 4.46. Moreover, the “stimulation of the receptor ([35S]GTPγS binding)” value in experiment [1] (setting [3]) is on record as “stimulated the receptor partially with a much lower potency”. Besides, the “% stim.” value in experiment [1] (setting [4]) is recorded as 95%. In addition, the negative logarithm of the EC50 (pEC50) (in general, the EC50 on a negative log10 scale, so that one unit is a factor of ten) in experiment [1] (setting [4]) is 4.35. In addition, the Ki (in general, a dissociation constant, usually derived from enzyme kinetics or from competition with a known ligand) in experiment [2] (mean of n experiments) was 24.5 µM; in experiment [2] (single experiments), 31.9 µM and 20.8 µM and 21.2 µM.
`Cn1cnc2ncnc-2c1N` [1-Methyladenine]: the negative-log IC50 (pIC50) in the experiment on wild type CHO cells (mean of n experiments) and with wild type CHO cells (single experiments) was under 4 throughout. Besides, the “stimulation of the receptor ([35S]GTPγS binding)” value in experiment [1] (setting [3]) is recorded as “stimulated the receptor partially with a much lower potency”. Moreover, the “% stim.” value in experiment [1] (setting [4]) was 129%; in experiment [1] (setting [5]), 90% and 135% and 161%. Further, the EC50 in experiment [1] (transiently transfected cells, mean of n experiments, read-out: pEC50 (converted)) was 15.1 µM; in experiment [1] (setting [6]) it was 16.2 µM and 12 µM and 17.8 µM. Also, the IC50 (commonly the midpoint of a concentration-inhibition curve) in experiment [2] (mean of n experiments) was 7.08 µM; in experiment [2] (single experiments), 6.17 µM and 9.77 µM and 5.75 µM. Also, the Ki in experiment [2] (mean of n experiments) is 4.39 µM; in experiment [2] (single experiments) it was 3.79 µM and 6.06 µM and 3.57 µM.
Consider `Nc1ncnc2nc[nH]c12` [Adenine, adenine], for which the inhibitory constant (Ki) is 0.085 µM in the experiment on wild type CHO cells (mean of n experiments); 0.018 µM in experiment [2] (mean of n experiments); 0.011 µM and 0.022 µM and 0.019 µM and 0.02 µM in experiment [2] (single experiments). Besides, the pIC50 with wild type CHO cells (mean of n experiments) is listed as 6.87. The EC50 was 0.112 µM in experiment [1] (transiently transfected CHO membranes, read-out: mean EC50); 0.0955 µM and 0.115 µM and 0.132 µM in experiment [1] (setting [6]). Further, the “% stim.” value in experiment [1] (setting [4]) was 148%; in experiment [1] (transiently transfected cells, mean of n experiments, listed as adenine), 150%; in experiment [1] (setting [5]), 177% and 199% and 106% and 111%. Moreover, the IC50 in experiment [2] (mean of n experiments) was 0.0282 µM; in experiment [2] (single experiments), 0.0174 µM and 0.0363 µM and 0.0309 µM and 0.0331 µM.
